Laboratory results reported in paper PMC8115619, “Generation of a chemical genetic model for JAK3” (Scientific Reports, 2021).

Columns and labels:
[1] = tested on: IFNβ induced STAT1 phosphorylation in BMDMs; assay: IFNβ induced STAT1 phosphorylation in macrophages; format: cell-based, mouse; conditions: wild type BMDMs, 10 μM inhibitor 2 h, 10 ng/ml IFNβ
Description: (A) BMDMs were isolated from wild type mice. Cells were incubated with the indicated inhibitors in μM for 2 h before stimulation with 10 ng/ml IL-4 for 30 min. The levels of phosphorylated STAT6 were then determined by immunoblotting. (B) As (A) except cells were stimulated 10 ng/ml GM-CSF and the levels of phosphorylated STAT5 determined. (C) As (A) except cells were stimulated 10 ng/ml IL-10 and the levels of phosphorylated STAT3 determined. (D) As (A) except cells were stimulated 10 ng/ml IFNβ and the levels of phosphorylated STAT1 determined. For A–D, levels of ERK1/2 were determined as a loading control.
Bone marrow derived macrophages (BMDMs) were cultured as described. Briefly, bone marrow was flushed in PBS from the femurs and tibias of mice. […]
Cells were lysed directly into SDS sample buffer and aliquots run on 10% polyacrylamide gels using standard methods. Proteins were transferred onto nitrocellulose membranes, and specific proteins were detected by immunoblotting. […] Bands were detected using Clarity ECL reagents from BioRad and imaged on a Licor Odyssey Fc system. Quantification was carried out using Licor Image Studio software. After correction for the ERK1/2 levels to account for loading differences, percentage inhibition was calculated relative to the IL-4 stimulated condition. IC50 values were calculated using the same methods as for the in vitro IC50 values.

EIF2AK3 = EIF2AK3 (Homo sapiens, UniProt Q9NZJ5); assay: Selectivity screen EIF2AK3; format: biochemical; conditions: 1 µM inhibitor, mean
Description: (§1) For the in vitro kinase assay, JAK3 (5–20 mU diluted in 50 mM Tris pH 7.5, 0.1 mM EGTA, 0.05% β-mercaptoethanol, 1 mg/ml BSA) was assayed against PDKtide ([…]) in a final volume of 25.5 µl containing 50 mM Tris pH 7.5, 0.1 mM EGTA, 0.05% β-mercaptoethanol, 100 µM substrate peptide, 10 mM magnesium acetate and 0.02 mM [33P-γ-ATP] (50–1000 cpm/pmole) and incubated for 30 min at room temperature. Assays were started by the addition of the ATP and stopped by addition of 5 µl of 0.5 M (3%) orthophosphoric acid and then harvested onto P81 Unifilter plates with a wash buffer of 50 mM orthophosphoric acid. To determine the Km for ATP, assays were run using 1, 5, 10, 20, 50, 100, 200, 400, 500 μM ATP and Km derived by non-linear regression fitting to the Michaelis–Menten equation v = Vmax[S]/(Km + [S]). IC50 values for inhibitors via non-linear regression using a parameter model: Y = Bottom + (Top–Bottom)/(1 + (IC50/X)^HillSlope). Non-linear regression was carried out in Prism (version 8). In vitro selectivity screen was carried out as described previously.

CSK = CSK (Homo sapiens, UniProt P41240); assay: Selectivity screen CSK; format: biochemical; conditions: 1 µM inhibitor, mean
Description: as §1

GSK3b = GSK3b (Homo sapiens, UniProt P49841); assay: Selectivity screen GSK3b; format: biochemical; conditions: 1 µM inhibitor, mean
Description: as §1

MINK1 = MINK1 (Homo sapiens, UniProt Q8N4C8); assay: Selectivity screen MINK1; format: biochemical; conditions: 1 µM inhibitor, mean
Description: as §1

PIM2 = PIM2 (Homo sapiens, UniProt Q9P1W9); assay: Selectivity screen PIM2; format: biochemical; conditions: 1 µM inhibitor, mean
Description: as §1

PKCa = PKCa (Homo sapiens, UniProt P17252); assay: Selectivity screen PKCa; format: biochemical; conditions: 1 µM inhibitor, mean
Description: as §1

MST2 = MST2 (Homo sapiens, UniProt Q13188); assay: Selectivity screen MST2; format: biochemical; conditions: 1 µM inhibitor, mean
Description: as §1

PINK = PINK (Tribolium castaneum, UniProt D6WMX4); assay: Selectivity screen PINK; format: biochemical; conditions: 1 µM inhibitor, mean
Description: as §1

DYRK3 = DYRK3 (Homo sapiens, UniProt O43781); assay: Selectivity screen DYRK3; format: biochemical; conditions: 1 µM inhibitor, mean
Description: as §1

PRK2 = PRK2 (Homo sapiens, UniProt Q16513); assay: Selectivity screen PRK2; format: biochemical; conditions: 1 µM inhibitor, mean
Description: as §1

PAK6 = PAK6 (Homo sapiens, UniProt Q9NQU5); assay: Selectivity screen PAK6; format: biochemical; conditions: 1 µM inhibitor, mean
Description: as §1

PAK4 = PAK4 (Homo sapiens, UniProt O96013); assay: Selectivity screen PAK4; format: biochemical; conditions: 1 µM inhibitor, mean
Description: as §1

MARK3 = MARK3 (Homo sapiens, UniProt P27448); assay: Selectivity screen MARK3; format: biochemical; conditions: 1 µM inhibitor, mean
Description: as §1

CAMK1 = CAMK1 (Homo sapiens, UniProt Q14012); assay: Selectivity screen CAMK1; format: biochemical; conditions: 1 µM inhibitor, mean
Description: as §1

Aurora B = Aurora B (Homo sapiens, UniProt Q96GD4); assay: Selectivity screen Aurora B; format: biochemical; conditions: 1 µM inhibitor, mean
p38b MAPK = p38b MAPK (Homo sapiens, UniProt Q15759); assay: Selectivity screen p38b MAPK; format: biochemical; conditions: 1 µM inhibitor, mean
Description: as §1

ZAP70 = ZAP70 (Homo sapiens, UniProt P43403); assay: Selectivity screen ZAP70; format: biochemical; conditions: 1 µM inhibitor, mean
Description: as §1

PRAK = PRAK (Homo sapiens, UniProt Q8IW41); assay: Selectivity screen PRAK; format: biochemical; conditions: 1 µM inhibitor, mean
Description: as §1

DYRK2 = DYRK2 (Homo sapiens, UniProt Q92630); assay: Selectivity screen DYRK2; format: biochemical; conditions: 1 µM inhibitor, mean
Description: as §1

ABL = ABL (Homo sapiens, UniProt P00519); assay: Selectivity screen ABL; format: biochemical; conditions: 1 µM inhibitor, mean
Description: as §1

MKK1 = MKK1 (Homo sapiens, UniProt Q02750); assay: Selectivity screen MKK1; format: biochemical; conditions: 1 µM inhibitor, mean
Description: as §1

MAPKAP-K2 = MAPKAP-K2 (Homo sapiens, UniProt P49137); assay: Selectivity screen MAPKAP-K2; format: biochemical; conditions: 1 µM inhibitor, mean
Description: as §1

MST2, sequence (Q13188 whole entry): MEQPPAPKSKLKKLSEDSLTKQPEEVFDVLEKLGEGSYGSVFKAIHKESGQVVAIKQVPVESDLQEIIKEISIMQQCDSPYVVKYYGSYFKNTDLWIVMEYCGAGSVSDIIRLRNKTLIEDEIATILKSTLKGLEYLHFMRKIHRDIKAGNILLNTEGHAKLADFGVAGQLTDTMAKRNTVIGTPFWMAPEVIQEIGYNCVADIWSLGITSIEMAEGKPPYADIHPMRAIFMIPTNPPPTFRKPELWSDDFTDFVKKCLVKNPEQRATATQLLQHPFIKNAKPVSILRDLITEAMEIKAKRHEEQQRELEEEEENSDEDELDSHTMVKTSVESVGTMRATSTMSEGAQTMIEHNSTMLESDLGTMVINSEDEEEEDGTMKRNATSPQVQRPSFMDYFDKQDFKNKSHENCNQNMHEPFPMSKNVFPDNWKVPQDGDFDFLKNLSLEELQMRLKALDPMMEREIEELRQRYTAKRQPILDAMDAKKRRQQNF
PIM2, sequence (Q9P1W9 whole entry): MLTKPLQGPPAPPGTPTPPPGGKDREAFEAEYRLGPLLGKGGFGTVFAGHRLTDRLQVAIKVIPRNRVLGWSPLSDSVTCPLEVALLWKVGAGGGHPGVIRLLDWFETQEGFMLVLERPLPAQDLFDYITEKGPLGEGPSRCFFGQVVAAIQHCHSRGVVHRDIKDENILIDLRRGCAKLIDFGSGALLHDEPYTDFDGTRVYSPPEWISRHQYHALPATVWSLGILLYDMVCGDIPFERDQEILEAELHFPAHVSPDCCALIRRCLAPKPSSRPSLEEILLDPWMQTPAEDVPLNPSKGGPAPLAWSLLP
ABL, sequence (P00519 whole entry): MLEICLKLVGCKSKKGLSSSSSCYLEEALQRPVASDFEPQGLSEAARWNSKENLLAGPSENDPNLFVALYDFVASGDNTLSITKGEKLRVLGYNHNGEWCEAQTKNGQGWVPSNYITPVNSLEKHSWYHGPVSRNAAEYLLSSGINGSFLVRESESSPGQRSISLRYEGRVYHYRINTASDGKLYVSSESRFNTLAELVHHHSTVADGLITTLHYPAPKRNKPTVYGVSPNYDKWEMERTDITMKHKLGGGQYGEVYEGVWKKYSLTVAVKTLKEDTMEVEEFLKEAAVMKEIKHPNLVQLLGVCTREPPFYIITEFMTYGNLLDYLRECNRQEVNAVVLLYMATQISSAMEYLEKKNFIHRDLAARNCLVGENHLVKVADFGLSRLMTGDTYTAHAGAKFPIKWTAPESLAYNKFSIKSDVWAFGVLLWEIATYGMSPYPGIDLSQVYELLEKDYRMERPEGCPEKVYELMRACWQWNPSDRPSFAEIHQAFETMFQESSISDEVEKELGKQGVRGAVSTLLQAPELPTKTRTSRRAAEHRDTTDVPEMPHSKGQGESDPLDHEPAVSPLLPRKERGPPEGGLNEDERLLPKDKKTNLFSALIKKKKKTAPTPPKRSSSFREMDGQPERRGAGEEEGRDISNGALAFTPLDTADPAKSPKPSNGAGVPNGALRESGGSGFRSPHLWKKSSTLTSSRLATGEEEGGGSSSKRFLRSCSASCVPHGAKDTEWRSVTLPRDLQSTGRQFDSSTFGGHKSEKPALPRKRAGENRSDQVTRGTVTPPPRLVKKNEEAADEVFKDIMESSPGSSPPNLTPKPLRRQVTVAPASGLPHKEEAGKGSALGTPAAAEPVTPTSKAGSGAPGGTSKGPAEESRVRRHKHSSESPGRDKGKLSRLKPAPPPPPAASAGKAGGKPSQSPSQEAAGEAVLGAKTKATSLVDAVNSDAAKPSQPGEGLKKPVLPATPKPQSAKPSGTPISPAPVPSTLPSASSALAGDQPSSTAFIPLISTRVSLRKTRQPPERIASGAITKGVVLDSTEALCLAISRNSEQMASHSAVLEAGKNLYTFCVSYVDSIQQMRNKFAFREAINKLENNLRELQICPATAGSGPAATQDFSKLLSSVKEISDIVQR
CAMK1, sequence (Q14012 whole entry): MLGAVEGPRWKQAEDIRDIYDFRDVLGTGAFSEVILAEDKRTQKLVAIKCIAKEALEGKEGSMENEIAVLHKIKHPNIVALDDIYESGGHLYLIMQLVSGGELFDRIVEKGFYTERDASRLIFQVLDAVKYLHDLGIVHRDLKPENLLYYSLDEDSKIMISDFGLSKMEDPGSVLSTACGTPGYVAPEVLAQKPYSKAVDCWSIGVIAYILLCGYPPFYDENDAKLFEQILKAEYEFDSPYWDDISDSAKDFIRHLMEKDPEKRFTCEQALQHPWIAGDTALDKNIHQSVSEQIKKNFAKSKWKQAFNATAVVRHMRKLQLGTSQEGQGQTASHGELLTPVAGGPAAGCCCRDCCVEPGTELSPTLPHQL
CSK, sequence (P41240 whole entry): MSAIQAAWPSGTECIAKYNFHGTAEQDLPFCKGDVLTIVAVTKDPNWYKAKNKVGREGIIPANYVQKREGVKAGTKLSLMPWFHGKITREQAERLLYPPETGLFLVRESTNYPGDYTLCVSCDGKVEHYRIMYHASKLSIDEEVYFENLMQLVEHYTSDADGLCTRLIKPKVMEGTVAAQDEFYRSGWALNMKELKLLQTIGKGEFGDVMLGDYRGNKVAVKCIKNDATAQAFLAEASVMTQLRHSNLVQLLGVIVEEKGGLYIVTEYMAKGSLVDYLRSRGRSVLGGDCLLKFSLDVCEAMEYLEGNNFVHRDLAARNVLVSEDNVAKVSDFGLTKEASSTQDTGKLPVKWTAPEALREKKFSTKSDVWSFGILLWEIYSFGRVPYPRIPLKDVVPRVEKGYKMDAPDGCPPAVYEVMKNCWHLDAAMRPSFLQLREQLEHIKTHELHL
MKK1, sequence (Q02750 whole entry): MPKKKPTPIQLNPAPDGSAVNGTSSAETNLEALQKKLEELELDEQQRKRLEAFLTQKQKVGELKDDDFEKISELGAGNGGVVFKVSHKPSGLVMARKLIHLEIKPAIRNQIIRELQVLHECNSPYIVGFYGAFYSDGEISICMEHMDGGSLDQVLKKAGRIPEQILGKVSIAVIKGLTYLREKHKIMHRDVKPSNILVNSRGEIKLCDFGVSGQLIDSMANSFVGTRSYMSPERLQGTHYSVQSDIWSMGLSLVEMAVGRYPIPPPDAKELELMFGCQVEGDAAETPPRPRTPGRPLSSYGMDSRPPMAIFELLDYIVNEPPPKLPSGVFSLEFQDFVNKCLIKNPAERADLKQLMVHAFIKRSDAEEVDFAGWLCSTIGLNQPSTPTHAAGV
DYRK3, sequence (O43781 whole entry): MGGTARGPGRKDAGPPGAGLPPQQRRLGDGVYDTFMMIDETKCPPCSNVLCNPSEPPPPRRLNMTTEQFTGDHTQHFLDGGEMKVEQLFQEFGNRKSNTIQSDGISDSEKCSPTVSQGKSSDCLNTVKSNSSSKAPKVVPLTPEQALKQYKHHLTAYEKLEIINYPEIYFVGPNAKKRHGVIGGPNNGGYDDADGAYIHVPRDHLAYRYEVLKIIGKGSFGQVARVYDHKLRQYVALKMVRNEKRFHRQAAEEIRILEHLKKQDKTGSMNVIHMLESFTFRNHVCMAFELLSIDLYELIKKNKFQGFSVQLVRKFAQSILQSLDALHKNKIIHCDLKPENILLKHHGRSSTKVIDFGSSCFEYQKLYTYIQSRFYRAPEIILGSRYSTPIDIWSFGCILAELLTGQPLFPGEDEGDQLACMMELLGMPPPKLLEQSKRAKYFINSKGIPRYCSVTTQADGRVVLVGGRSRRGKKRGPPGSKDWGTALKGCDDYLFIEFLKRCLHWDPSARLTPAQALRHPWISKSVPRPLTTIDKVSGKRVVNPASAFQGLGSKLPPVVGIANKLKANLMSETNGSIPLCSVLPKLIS
ZAP70, sequence (P43403 whole entry): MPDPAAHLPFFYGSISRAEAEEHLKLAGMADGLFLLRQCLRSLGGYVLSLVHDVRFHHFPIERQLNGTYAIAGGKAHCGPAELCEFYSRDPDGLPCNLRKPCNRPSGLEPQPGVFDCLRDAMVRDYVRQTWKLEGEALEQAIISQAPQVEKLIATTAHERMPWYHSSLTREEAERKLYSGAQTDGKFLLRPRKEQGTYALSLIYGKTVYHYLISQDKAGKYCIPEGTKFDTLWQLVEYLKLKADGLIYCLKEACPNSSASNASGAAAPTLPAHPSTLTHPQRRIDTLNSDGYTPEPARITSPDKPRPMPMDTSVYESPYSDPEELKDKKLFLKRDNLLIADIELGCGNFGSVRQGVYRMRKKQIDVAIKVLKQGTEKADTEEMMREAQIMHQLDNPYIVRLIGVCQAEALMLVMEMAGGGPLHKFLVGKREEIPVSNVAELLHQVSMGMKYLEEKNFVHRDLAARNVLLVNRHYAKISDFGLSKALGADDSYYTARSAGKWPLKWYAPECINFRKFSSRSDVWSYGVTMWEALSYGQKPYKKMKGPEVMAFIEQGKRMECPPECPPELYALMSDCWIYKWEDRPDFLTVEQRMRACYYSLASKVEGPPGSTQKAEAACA

Row | SMILES | inhibition of IFNβ induced STAT1 phosphorylation [1] | activity remaining in the presence of the inhibitor: EIF2AK3 (EIF2AK3) | activity remaining in the presence of the inhibitor: CSK (CSK) | activity remaining in the presence of the inhibitor: GSK3b (GSK3b) | activity remaining in the presence of the inhibitor: MINK1 (MINK1) | activity remaining in the presence of the inhibitor: PIM2 (PIM2) | activity remaining in the presence of the inhibitor: PKCa (PKCa) | activity remaining in the presence of the inhibitor: MST2 (MST2) | activity remaining in the presence of the inhibitor: PINK (PINK) | activity remaining in the presence of the inhibitor: DYRK3 (DYRK3) | activity remaining in the presence of the inhibitor: PRK2 (PRK2) | activity remaining in the presence of the inhibitor: PAK6 (PAK6) | activity remaining in the presence of the inhibitor: PAK4 (PAK4) | activity remaining in the presence of the inhibitor: MARK3 (MARK3) | activity remaining in the presence of the inhibitor: CAMK1 (CAMK1) | activity remaining in the presence of the inhibitor: Aurora B (Aurora B) | activity remaining in the presence of the inhibitor: p38b MAPK (p38b MAPK) | activity remaining in the presence of the inhibitor: ZAP70 (ZAP70) | activity remaining in the presence of the inhibitor: PRAK (PRAK) | activity remaining in the presence of the inhibitor: DYRK2 (DYRK2) | also measured
1 | C=CC(=O)N1C[C@H](Nc2ncnc3[nH]ccc23)CC[C@@H]1C [PF-06651600, 1-((2S,5R)-5-((7H-Pyrrolo[2,3-d]pyrimidin-4-yl)amino)-2-methylpiperidin-1-yl)prop-2-en-1-one, reference compound] | did not block | – | – | – | – | – | – | – | – | – | – | – | – | – | – | – | – | – | – | – | –
2 | C=CC(=O)Nc1cccc(CNc2nc(Nc3ccc(N4CCN(C)CC4)cc3OC)ncc2Cl)c1 [TL6-144] | – | 98 | 113 | 87 | 80 | 97 | 81 | 83 | 107 | 95 | 78 | 77 | 99 | 48 | 68 | 81 | 93 | 86 | 93 | 92 | activity remaining in the presence of the inhibitor: ABL (ABL): 87; activity remaining in the presence of the inhibitor: MKK1 (MKK1): 79; activity remaining in the presence of the inhibitor: MAPKAP-K2 (MAPKAP-K2): 103
3 | C=CC(=O)Nc1cccc(CNc2nc(Nc3ccc(N4CCOCC4)cc3)ncc2Cl)c1 [TL8-52] | Some inhibition | 90 | 73 | 118 | 80 | 100 | 91 | 48 | 110 | 95 | 52 | 99 | 85 | 21 | 97 | 13 | 96 | 77 | 113 | 87 | activity remaining in the presence of the inhibitor: ABL (ABL): 89; activity remaining in the presence of the inhibitor: MKK1 (MKK1): 84; activity remaining in the presence of the inhibitor: MAPKAP-K2 (MAPKAP-K2): 97
